Measured values published in US20250243196A1, “CITRON KINASE INHIBITORS” (The Cleveland Clinic Foundation, priority 2021, published 2025).

Assays:
Type in all cases: biochemical
[1] = molecular target: SAPK2b(h) (Homo sapiens (Human), UniProt Q15759); test: KinaseProfiler panel; set-up: dose or concentration left out as unconfirmed; details: activity remaining
[2] = molecular target: PKD3(h) (Homo sapiens (Human), UniProt O94806); test: KinaseProfiler panel; set-up: dose or concentration left out as unconfirmed; details: activity remaining
[3] = molecular target: PrKX(h) (Homo sapiens (Human), UniProt P51817); test: KinaseProfiler panel; set-up: dose or concentration left out as unconfirmed; details: activity remaining
[4] = molecular target: CDK14/cyclinY(h) (Homo sapiens (Human), UniProt O94921); test: KinaseProfiler panel; set-up: dose or concentration left out as unconfirmed; details: activity remaining
[5] = molecular target: CDK17/cyclinY(h) (Homo sapiens (Human), UniProt Q00537); test: KinaseProfiler panel; set-up: dose or concentration left out as unconfirmed; details: activity remaining
CDK17/cyclinY(h), sequence (Q00537 whole entry): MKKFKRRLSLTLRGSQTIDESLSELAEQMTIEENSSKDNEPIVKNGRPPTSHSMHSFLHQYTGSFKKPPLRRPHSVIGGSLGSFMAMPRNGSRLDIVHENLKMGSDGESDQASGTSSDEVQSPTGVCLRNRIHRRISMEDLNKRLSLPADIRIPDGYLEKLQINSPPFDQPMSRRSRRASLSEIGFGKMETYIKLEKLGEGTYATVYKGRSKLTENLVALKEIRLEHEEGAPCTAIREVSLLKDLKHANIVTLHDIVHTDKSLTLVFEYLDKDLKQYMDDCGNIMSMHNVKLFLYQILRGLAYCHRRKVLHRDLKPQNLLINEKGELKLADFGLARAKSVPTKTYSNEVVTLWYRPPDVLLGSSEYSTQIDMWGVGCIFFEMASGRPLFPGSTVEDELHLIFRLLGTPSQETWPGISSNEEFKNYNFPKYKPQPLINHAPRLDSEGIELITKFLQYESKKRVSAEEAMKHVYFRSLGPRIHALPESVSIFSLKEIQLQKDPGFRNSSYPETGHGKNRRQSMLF
CDK17/cyclinY(h), sequence (Q8ND76 whole entry partner): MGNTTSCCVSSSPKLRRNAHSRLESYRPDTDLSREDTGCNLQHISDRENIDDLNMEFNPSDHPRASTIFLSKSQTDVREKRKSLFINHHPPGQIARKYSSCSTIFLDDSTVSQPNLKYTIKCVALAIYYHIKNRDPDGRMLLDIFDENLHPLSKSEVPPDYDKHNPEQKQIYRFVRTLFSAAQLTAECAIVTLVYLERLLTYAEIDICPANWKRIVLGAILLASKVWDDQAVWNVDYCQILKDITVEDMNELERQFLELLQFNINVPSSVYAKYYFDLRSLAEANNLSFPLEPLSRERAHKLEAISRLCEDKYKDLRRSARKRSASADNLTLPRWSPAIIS

[6] = molecular target: TAO2(h) (Homo sapiens (Human), UniProt Q9UL54); test: KinaseProfiler panel; details: activity remaining
[7] = molecular target: CDKL2(h) (Homo sapiens (Human), UniProt Q92772); test: KinaseProfiler panel; set-up: dose or concentration left out as unconfirmed; details: activity remaining
[8] = molecular target: ROCK-2 (Homo sapiens (Human), UniProt O75116); test: KinaseProfiler radiometric assay (14-451KP); details: mean of at least two independent experiments
Excerpt: In another aspect, disclosed is a method of inhibiting citron kinase in a sample, comprising contacting the sample with a compound described herein (e.g., a compound of formula (I) or a pharmaceutically acceptable salt thereof), or a pharmaceutical composition described herein (e.g., a pharmaceutical composition comprising a compound of formula (I) or a pharmaceutically acceptable salt thereof), in an amount effective to inhibit citron kinase. In some embodiments, the step of contacting the sample with the compound comprises administering the compound to a subject (e.g., a subject) suffering from cancer. Methods of determining kinase inhibition are well known in the art. For example, kinase activity of an enzyme and the inhibitory capacity of a test compound can be determined by measuring enzyme specific phosphorylation of a substrate. Commercial assays and kits can be employed. For example, kinase inhibition can be determined using a radiometric binding assay, such as using KinaseProfiler™ technology (Eurofins Discovery). This assay method directly detects product formation without the use of modified substrates or coupling enzymes. Test compounds are incubated with kinase, substrate, required cofactors and radioisotope labeled ATP. Following incubation, unreacted radioactive ATP is removed by washing and incorporation of the radiolabeled phosphate into the kinase substrate is assayed to detect phosphoryltransferase activity, which is directly proportional to the amount of phosphorylated substrate. Inhibition of the kinase by a kinase inhibitor prevents phosphorylation of the substrate and thereby limits the incorporation of radiolabeled phosphate. Such an assay is compatible with a microwell assay format, allowing simultaneous determination of IC50 of multiple compounds.
The effect of various compounds on the inhibition of other kinases has also been determined. Table 2 reports measured IC50 values; value units are nanomolar inhibition.

[9] = molecular target: cKit(h) (Homo sapiens (Human), UniProt P10721); test: KinaseProfiler panel; set-up: dose or concentration left out as unconfirmed; details: activity remaining
cKit(h), sequence (P10721 26-976): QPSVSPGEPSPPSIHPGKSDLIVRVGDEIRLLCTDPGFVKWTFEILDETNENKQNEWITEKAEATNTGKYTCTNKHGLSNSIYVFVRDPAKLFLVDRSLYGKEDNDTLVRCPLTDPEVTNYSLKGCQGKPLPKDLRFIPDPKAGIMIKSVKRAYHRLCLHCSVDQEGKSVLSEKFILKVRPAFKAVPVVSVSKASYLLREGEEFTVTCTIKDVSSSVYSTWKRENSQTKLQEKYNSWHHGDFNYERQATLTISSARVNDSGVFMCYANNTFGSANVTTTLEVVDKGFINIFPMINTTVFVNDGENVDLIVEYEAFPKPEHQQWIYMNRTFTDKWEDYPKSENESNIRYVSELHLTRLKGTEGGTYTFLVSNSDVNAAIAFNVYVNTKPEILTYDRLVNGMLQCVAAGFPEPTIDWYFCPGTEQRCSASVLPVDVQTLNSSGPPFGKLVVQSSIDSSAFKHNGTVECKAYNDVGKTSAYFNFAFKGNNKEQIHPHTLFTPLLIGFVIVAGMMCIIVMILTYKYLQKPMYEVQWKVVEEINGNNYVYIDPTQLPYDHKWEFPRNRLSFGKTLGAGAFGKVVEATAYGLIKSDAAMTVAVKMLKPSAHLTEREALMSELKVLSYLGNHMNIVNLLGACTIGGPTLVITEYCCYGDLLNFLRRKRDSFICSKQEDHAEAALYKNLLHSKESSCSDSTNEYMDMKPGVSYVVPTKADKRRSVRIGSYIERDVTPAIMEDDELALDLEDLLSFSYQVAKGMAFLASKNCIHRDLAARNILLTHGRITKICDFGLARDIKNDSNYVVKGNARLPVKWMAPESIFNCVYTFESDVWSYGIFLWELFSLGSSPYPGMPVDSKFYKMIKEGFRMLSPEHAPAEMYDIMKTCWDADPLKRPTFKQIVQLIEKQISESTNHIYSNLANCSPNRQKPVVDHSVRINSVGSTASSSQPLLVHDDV

[10] = molecular target: Flt1(h) (Homo sapiens (Human), UniProt P17948); test: KinaseProfiler panel; set-up: dose or concentration left out as unconfirmed; details: activity remaining
[11] = molecular target: STK39(h) (Homo sapiens (Human), UniProt Q9UEW8); test: KinaseProfiler panel; details: activity remaining
[12] = molecular target: EphA5(h) (Homo sapiens (Human), UniProt P54756); test: KinaseProfiler panel; set-up: dose or concentration left out as unconfirmed; details: activity remaining
[13] = molecular target: SGK3(h) (Homo sapiens (Human), UniProt Q96BR1); test: KinaseProfiler panel; set-up: dose or concentration left out as unconfirmed; details: activity remaining
[14] = molecular target: MKK3(h) (Homo sapiens (Human), UniProt P46734); test: KinaseProfiler panel; set-up: dose or concentration left out as unconfirmed; details: activity remaining
[15] = molecular target: SRMS(h) (Homo sapiens (Human), UniProt Q9H3Y6); test: KinaseProfiler panel; set-up: dose or concentration left out as unconfirmed; details: activity remaining
SRMS(h), sequence (Q9H3Y6 whole entry): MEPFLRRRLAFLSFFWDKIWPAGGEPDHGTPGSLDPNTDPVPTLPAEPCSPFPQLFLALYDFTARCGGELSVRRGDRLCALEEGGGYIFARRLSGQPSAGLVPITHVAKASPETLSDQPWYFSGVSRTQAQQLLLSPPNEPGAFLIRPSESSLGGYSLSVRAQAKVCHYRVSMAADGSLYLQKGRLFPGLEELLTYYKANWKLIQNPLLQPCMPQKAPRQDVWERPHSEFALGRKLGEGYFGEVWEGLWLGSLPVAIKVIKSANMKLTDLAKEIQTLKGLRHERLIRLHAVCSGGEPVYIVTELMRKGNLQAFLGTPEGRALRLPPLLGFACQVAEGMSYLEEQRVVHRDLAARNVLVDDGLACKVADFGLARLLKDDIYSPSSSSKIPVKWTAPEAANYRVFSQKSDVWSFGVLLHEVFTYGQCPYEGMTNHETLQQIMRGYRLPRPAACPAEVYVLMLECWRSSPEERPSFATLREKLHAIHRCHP

[16] = molecular target: ZAP-70(h) (Homo sapiens (Human), UniProt P43403); test: KinaseProfiler panel; set-up: dose or concentration left out as unconfirmed; details: activity remaining
[17] = molecular target: MAPK1(h) (Homo sapiens (Human), UniProt P27361); test: KinaseProfiler panel; set-up: dose or concentration left out as unconfirmed; details: activity remaining
[18] = molecular target: WNK1(h) (Homo sapiens (Human), UniProt Q9H4A3); test: KinaseProfiler panel; set-up: dose or concentration left out as unconfirmed; details: activity remaining
WNK1(h), sequence (Q9H4A3 whole entry): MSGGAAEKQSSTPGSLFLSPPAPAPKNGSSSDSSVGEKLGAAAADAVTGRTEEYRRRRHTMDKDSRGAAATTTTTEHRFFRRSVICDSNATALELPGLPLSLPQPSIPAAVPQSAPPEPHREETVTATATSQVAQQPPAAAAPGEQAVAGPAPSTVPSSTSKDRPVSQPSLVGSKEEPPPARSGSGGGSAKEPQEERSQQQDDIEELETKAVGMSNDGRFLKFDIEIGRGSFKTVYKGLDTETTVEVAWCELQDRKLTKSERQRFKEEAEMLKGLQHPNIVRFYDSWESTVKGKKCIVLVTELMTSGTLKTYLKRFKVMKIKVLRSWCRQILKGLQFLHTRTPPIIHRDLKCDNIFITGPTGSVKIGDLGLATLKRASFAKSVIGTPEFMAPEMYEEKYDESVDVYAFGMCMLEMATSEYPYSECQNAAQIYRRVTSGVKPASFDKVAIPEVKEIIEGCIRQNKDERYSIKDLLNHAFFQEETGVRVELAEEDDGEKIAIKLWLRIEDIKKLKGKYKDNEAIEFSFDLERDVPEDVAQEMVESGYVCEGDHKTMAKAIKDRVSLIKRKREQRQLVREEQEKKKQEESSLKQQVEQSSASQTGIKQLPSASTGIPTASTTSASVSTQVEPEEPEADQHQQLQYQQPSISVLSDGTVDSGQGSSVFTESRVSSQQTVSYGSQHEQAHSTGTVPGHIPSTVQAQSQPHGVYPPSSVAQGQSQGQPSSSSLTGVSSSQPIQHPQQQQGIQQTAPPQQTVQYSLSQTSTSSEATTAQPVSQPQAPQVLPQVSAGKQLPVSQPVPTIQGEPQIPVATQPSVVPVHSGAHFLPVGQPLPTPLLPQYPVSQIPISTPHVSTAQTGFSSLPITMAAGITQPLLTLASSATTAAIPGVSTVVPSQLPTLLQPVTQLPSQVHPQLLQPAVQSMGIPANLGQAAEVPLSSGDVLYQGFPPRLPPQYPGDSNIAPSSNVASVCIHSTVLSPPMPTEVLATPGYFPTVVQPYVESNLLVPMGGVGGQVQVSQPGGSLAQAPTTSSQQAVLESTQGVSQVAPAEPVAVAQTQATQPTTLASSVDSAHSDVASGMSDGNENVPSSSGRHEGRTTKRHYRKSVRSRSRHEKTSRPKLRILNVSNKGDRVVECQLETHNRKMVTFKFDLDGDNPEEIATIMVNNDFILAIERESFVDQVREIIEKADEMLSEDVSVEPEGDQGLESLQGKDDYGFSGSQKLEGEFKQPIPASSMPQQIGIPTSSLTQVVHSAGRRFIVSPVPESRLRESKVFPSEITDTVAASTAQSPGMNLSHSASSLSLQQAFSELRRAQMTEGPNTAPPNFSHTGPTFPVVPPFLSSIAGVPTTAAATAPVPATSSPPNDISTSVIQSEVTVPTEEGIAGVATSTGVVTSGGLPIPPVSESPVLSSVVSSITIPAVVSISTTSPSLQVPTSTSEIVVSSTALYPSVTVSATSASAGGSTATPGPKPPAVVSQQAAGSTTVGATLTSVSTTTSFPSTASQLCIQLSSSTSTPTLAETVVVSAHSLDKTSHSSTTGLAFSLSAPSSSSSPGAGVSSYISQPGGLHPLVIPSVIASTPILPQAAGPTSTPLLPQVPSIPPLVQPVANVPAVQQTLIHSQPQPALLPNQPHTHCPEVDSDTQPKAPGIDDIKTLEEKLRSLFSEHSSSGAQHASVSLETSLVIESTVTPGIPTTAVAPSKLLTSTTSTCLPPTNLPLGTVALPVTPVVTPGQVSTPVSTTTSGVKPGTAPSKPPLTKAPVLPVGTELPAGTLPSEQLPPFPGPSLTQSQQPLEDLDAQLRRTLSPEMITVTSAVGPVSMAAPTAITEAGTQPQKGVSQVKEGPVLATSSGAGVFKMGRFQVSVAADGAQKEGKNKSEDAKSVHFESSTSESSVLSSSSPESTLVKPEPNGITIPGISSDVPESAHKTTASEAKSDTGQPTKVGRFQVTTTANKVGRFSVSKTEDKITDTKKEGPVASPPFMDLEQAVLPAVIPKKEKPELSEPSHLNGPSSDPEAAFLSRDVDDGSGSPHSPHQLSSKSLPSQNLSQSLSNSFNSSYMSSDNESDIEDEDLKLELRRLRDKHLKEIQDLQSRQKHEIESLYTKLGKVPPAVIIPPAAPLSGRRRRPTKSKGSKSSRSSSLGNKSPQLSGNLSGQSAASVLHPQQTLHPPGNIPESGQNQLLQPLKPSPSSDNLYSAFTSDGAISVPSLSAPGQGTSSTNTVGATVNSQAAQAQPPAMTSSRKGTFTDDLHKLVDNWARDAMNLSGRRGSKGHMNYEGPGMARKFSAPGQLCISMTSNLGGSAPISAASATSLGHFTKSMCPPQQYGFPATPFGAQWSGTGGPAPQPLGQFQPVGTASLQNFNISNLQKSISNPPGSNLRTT

[19] = molecular target: Pim-2(h) (Homo sapiens (Human), UniProt Q9P1W9); test: KinaseProfiler panel; set-up: dose or concentration left out as unconfirmed; details: activity remaining
Pim-2(h), sequence (Q9P1W9 whole entry): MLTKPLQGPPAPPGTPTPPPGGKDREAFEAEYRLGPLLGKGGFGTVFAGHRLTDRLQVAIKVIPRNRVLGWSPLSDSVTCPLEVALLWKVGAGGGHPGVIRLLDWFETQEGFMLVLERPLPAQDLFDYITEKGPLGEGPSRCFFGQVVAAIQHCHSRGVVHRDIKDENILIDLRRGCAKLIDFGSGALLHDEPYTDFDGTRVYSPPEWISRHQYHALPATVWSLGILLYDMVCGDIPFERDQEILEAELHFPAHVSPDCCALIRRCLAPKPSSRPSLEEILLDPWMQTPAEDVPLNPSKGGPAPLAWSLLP

[20] = molecular target: GRK1(h) (Homo sapiens (Human), UniProt Q15835); test: KinaseProfiler panel; set-up: dose or concentration left out as unconfirmed; details: activity remaining
[21] = molecular target: NLK(h) (Homo sapiens (Human), UniProt Q9UBE8); test: KinaseProfiler panel; details: activity remaining
[22] = molecular target: CaMKIIβ(h) (Homo sapiens (Human), UniProt Q13554); test: KinaseProfiler panel; set-up: dose or concentration left out as unconfirmed; details: activity remaining
[23] = molecular target: HIPK2(h) (Homo sapiens (Human), UniProt Q9H2X6); test: KinaseProfiler panel; set-up: dose or concentration left out as unconfirmed; details: activity remaining
[24] = molecular target: GRK7(h) (Homo sapiens (Human), UniProt Q8WTQ7); test: KinaseProfiler panel; set-up: dose or concentration left out as unconfirmed; details: activity remaining

Cc1cc2c(-c3ccc(NC(=O)[C@H](N)CC(C)(C)C)cc3C)ccnc2[nH]1 [Compound F-90, (2R)-2-Amino-4,4-dimethyl-N-[3-methyl-4-(2-methyl-1H-pyrrolo[2,3-b]pyridin-4-yl)phenyl]pentanamide]
% Activity [1]: 90% | % Activity [2]: 97% | % Activity [3]: 101% | % Activity [4]: 91% | % Activity [5]: 108% | % Activity [6]: 90% | % Activity [7]: 80% | IC50 [8]: > 3 µM | % Activity [9]: 85% | % Activity [10]: 125% | % Activity [11]: 102% | % Activity [12]: 89% | % Activity [13]: 102% | % Activity [14]: 97% | % Activity [15]: 86% | % Activity [16]: 71% | % Activity [17]: 95% | % Activity [18]: 109% | % Activity [19]: 117% | % Activity [20]: 86% | % Activity [21]: 98% | % Activity [22]: 93% | % Activity [23]: 105% | % Activity [24]: 98%
